Species on record: Rattus norvegicus
Assay: Open TG-GATES - Regimen: Daily Repeat
Format: toxicity, organism-based, Sprague-Dawley
Parameters: regimen Daily Repeat, gender Male, age 6 weeks
Conditions: in vivo, po, 0 mg/kg, […], route gavage, dose level Control; for KIDNEY_L / KIDNEY_R / KIDNEY_TOTAL: tissue Kidney; for LIVER: tissue Liver; for ALP / ALT / AST / BUN / CRE / DBIL / GLC / IP / K / LDH / Na / PL / RALB / TBIL / TC / TG / TP / gamma-GTP: tissue Plasma

## Clc1ccccc1CN1CCc2sccc2C1 [TICLOPIDINE]
Tissue Blood, time 28 day
  Fbg: 233.4 mg/dL
  Hb: 15.5 g/dL
  Ht: 41.4%
  Lym: 80.2%
  MCH: 20.9 pg
  MCHC: 37.5%
  MCV: 55.7 fL
  Mono: 2%
  Neu: 15.4%
  PT: 11.5 s
  Plat: 106.8 x10_4/uL
  RBC: 743.4 x10_4/ul
  Ret: 2.7%
  WBC: 97 x10_2/uL
Time 7 day
  KIDNEY_L: 1.1 g
  KIDNEY_R: 1 g
  KIDNEY_TOTAL: 2.1 g
  LIVER: 11.3 g
  ALP: 1176 IU/L
  ALT: 44.8 IU/L
  AST: 81.6 IU/L
  BUN: 15 mg/dL
  CRE: 0.4 mg/dL
  DBIL: 0.066 mg/dL
  GLC: 195.4 mg/dL
  IP: 6.9 mg/dL
  K: 3.9 meq/L
  LDH: 144.6 IU/L
  Na: 141.4 meq/L
  PL: 153.4 mg/dL
  RALB: 3.4 g/dL
  TBIL: 0.1 mg/dL
  TC: 77.8 mg/dL
  TG: 81.6 mg/dL
  TP: 5.7 g/dL
  gamma-GTP: 1.2 IU/L
Time 14 day
  KIDNEY_L: 1.2 g
  KIDNEY_R: 1.2 g
  KIDNEY_TOTAL: 2.4 g
  LIVER: 13.2 g
  ALP: 840.4 IU/L
  ALT: 33.6 IU/L
  AST: 70.2 IU/L
  BUN: 17.2 mg/dL
  CRE: 0.4 mg/dL
  DBIL: 0.056 mg/dL
  GLC: 215.8 mg/dL
  IP: 7.5 mg/dL
  K: 4.4 meq/L
  LDH: 155.2 IU/L
  Na: 142 meq/L
  PL: 138 mg/dL
  RALB: 3.4 g/dL
  TBIL: 0.098 mg/dL
  TC: 65.2 mg/dL
  TG: 114 mg/dL
  TP: 5.6 g/dL
  gamma-GTP: 1.2 IU/L
Time 28 day
  KIDNEY_L: 1.4 g
  KIDNEY_R: 1.3 g
  KIDNEY_TOTAL: 2.7 g
  LIVER: 16.3 g
  ALP: 742.8 IU/L
  ALT: 29.6 IU/L
  AST: 58.6 IU/L
  BUN: 18.2 mg/dL
  CRE: 0.5 mg/dL
  DBIL: 0.068 mg/dL
  GLC: 214.4 mg/dL
  IP: 6.7 mg/dL
  K: 3.8 meq/L
  LDH: 168.2 IU/L
  Na: 141.6 meq/L
  PL: 133.2 mg/dL
  RALB: 3.6 g/dL
  TBIL: 0.1 mg/dL
  TC: 63 mg/dL
  TG: 126.8 mg/dL
  TP: 6.1 g/dL
  gamma-GTP: 0.8 IU/L

— ChEMBL document CHEMBL3885861, “Open TG-GATES”
